Compound: Nc1ncnc2c1ncn2[C@@H]1O[C@H](COP(=O)(O)OP(=O)(O)OP(=O)(O)O)[C@@H](O)[C@H]1O [adenosine triphosphate]
Assay: pEC50 of ATP-induced change in protein thermal stability (2D-TPP)
Procedure: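 2D thermal proteome profiling in mechanically disrupted Jurkat crude lysate. Lysate was treated 10 min at room temperature with Na-ATP (0, 0.005, 0.05, 0.5, 2 mM), heated to 12 temperatures (42-63.9 °C) for 3 min, and soluble protein was quantified by TMT10 LC-MS/MS. pEC50 is the median over replicates of dose-response fits at the lowest temperature showing a fold change of at least 1.5 (FDR-controlled hits).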

Sequence of UniProt Q9HC35 (Q9HC35 whole entry): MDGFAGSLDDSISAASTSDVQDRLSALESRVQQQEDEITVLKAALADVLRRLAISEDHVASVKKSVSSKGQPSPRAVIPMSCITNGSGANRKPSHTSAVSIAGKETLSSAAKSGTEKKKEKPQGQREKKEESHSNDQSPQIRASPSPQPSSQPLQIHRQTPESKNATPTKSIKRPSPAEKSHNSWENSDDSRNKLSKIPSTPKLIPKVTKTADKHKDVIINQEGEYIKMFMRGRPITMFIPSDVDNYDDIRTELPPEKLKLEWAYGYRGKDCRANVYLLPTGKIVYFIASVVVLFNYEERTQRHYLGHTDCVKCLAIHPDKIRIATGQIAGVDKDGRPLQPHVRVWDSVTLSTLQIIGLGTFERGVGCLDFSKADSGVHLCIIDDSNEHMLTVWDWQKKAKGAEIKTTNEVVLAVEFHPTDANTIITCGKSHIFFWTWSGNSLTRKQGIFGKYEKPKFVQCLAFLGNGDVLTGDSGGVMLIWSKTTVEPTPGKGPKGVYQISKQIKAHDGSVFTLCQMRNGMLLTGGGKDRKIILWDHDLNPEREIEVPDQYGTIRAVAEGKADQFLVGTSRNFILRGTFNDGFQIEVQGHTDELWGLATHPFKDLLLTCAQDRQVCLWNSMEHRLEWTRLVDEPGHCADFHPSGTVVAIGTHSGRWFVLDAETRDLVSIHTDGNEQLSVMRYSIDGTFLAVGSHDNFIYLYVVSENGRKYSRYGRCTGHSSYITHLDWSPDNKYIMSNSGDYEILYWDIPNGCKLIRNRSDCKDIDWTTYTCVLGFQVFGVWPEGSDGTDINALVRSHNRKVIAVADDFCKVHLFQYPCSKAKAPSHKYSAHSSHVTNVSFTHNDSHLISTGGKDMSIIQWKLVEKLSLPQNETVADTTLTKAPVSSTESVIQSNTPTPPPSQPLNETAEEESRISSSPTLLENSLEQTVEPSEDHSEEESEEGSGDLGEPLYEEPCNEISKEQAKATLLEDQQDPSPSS
Sequence of UniProt O60216 (O60216 whole entry): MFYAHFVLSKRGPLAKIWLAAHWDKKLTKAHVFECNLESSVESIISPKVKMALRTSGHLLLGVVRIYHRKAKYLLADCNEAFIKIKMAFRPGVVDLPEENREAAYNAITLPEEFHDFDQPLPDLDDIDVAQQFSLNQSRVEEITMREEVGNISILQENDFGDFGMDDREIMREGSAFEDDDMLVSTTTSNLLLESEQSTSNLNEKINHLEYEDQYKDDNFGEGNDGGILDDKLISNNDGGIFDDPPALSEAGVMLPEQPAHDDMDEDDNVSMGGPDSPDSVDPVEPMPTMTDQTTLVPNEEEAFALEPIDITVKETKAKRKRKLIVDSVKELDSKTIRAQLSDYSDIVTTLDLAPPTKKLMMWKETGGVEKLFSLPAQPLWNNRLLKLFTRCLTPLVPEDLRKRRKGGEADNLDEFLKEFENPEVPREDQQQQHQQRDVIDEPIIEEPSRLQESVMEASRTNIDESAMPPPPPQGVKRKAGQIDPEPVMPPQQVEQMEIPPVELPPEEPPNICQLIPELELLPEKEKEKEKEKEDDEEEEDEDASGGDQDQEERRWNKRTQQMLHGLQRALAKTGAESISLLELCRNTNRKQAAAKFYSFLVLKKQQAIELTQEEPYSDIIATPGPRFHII
Sequence of UniProt Q15717 (Q15717 whole entry): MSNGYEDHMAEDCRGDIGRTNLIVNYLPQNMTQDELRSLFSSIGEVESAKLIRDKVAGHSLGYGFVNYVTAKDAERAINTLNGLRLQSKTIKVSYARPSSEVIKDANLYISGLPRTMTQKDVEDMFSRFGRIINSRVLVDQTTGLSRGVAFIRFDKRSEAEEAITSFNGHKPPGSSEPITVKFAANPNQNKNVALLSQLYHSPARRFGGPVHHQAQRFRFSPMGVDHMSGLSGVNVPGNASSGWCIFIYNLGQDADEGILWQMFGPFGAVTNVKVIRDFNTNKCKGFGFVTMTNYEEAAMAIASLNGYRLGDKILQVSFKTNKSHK
Sequence of UniProt P30043 (P30043 whole entry): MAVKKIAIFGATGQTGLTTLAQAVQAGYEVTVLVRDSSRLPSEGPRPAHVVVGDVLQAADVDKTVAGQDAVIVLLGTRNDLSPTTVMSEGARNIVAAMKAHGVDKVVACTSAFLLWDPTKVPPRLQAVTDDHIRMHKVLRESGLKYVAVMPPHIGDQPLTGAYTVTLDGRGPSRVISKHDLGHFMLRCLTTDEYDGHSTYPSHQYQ
Sequence of UniProt Q92888 (Q92888 whole entry): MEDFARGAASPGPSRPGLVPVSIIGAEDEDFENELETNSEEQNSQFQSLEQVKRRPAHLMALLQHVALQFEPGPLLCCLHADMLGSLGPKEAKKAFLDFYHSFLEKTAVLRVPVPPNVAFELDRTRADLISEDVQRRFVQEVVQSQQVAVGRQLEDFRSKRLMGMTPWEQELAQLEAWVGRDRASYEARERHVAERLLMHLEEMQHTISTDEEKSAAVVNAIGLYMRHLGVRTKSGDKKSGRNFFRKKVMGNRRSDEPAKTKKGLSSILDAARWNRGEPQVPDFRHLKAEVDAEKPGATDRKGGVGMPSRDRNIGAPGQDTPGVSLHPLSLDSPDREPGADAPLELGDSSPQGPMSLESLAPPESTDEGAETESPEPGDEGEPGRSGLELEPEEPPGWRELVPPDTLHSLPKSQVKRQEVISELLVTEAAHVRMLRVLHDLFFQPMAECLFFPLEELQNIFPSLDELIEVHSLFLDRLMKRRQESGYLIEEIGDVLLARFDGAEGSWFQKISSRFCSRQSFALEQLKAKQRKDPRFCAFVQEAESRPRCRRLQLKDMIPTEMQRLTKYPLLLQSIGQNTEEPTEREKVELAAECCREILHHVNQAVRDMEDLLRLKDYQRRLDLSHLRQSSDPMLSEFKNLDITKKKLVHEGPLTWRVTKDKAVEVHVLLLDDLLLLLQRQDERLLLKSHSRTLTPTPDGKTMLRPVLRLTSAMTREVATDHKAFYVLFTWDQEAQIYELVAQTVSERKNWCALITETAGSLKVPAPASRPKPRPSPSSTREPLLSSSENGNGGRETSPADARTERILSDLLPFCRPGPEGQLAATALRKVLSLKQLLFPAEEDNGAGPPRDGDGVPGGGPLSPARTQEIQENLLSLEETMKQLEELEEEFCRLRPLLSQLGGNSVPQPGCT
Sequence of UniProt Q8IV38 (Q8IV38 whole entry): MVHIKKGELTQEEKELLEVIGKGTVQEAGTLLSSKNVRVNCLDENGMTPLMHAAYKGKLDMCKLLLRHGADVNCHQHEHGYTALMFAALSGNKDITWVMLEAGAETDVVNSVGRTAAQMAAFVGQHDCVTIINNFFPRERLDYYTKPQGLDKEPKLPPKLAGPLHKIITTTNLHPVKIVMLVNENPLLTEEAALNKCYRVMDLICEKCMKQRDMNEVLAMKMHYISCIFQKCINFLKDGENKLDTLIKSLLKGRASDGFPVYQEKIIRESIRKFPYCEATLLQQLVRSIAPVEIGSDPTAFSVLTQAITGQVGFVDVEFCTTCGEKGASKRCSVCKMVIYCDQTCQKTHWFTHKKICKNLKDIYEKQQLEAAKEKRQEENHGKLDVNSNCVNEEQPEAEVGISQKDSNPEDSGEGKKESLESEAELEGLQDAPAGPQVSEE
Sequence of UniProt Q13200 (Q13200 whole entry): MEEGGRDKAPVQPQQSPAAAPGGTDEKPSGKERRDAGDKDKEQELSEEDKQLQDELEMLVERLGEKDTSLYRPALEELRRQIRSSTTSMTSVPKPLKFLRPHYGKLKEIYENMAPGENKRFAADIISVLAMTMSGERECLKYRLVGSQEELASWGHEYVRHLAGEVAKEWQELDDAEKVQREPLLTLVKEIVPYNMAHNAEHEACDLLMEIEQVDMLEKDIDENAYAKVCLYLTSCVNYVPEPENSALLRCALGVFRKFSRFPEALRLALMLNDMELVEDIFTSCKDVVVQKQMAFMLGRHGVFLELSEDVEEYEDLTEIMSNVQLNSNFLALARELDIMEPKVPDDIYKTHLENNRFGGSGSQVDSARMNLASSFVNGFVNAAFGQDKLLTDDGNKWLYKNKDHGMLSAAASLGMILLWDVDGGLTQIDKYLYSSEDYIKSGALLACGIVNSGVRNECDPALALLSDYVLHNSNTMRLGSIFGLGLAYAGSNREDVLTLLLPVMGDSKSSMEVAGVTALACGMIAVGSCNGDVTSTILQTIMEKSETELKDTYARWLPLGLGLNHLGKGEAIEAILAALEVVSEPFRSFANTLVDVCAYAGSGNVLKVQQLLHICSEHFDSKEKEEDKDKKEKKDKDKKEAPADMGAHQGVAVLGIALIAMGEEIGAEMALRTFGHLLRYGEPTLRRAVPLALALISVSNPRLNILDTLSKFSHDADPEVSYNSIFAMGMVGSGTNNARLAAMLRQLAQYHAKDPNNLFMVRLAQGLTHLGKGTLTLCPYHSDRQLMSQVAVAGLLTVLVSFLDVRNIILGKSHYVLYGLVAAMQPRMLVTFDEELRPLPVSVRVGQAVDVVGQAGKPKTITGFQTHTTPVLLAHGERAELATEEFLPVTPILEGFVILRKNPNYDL
Sequence of UniProt P49591 (P49591 whole entry, looked up): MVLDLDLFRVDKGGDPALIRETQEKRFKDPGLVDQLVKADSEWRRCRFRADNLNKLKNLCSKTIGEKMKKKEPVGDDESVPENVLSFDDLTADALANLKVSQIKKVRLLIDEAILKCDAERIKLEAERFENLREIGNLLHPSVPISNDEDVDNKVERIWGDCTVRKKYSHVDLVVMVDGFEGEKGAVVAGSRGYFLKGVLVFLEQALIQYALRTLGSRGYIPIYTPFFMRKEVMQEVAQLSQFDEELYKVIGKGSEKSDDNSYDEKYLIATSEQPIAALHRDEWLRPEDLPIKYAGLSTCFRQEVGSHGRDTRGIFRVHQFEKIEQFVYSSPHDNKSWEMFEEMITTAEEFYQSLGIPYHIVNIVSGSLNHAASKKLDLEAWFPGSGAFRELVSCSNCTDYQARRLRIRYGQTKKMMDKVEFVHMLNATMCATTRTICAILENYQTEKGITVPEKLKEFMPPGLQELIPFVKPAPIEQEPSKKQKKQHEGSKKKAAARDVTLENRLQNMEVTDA

Target	pEC50
ATG7 (effect direction: stabilized) (UniProt O95352)	3.74
ALDH6A1 (effect direction: stabilized) (UniProt Q02252)	3.53
BLVRB (effect direction: stabilized) (UniProt P30043)	2.87
MACROD1 (effect direction: stabilized) (UniProt Q9BQ69)	3.27
UniProt P61163 (effect direction: stabilized)	3.1
POP1 (effect direction: destabilized) (UniProt Q99575)	< 2.7
UniProt P49591 (effect direction: stabilized)	< 2.7
RAD21 (effect direction: stabilized) (UniProt O60216)	3.6
DLGAP5 (effect direction: destabilized) (UniProt Q15398)	2.82
PLS1 (effect direction: stabilized) (UniProt Q14651)	< 2.7
EPS15L1 (effect direction: destabilized) (UniProt Q9UBC2)	2.94
UniProt Q14562 (effect direction: stabilized)	3.56
GSS (effect direction: stabilized) (UniProt P48637)	3.56
NCAPG (effect direction: stabilized) (UniProt Q9BPX3)	3.93
SPG7 (effect direction: stabilized) (UniProt Q9UQ90)	4.48
CHD1 (effect direction: stabilized) (UniProt O14646)	< 2.7
SDAD1 (effect direction: destabilized) (UniProt Q9NVU7)	< 2.7
TUT1 (effect direction: stabilized) (UniProt Q9H6E5)	2.93
MEPCE (effect direction: stabilized) (UniProt Q7L2J0)	2.82
ENO3 (effect direction: destabilized) (UniProt P13929)	< 2.7
ANKMY2 (effect direction: stabilized) (UniProt Q8IV38)	< 2.7
DNAJC13 (effect direction: stabilized) (UniProt O75165)	2.86
Q5JWF2|P63092 (effect direction: stabilized) (UniProt P63092+Q5JWF2)	< 2.7
HNRNPU (effect direction: stabilized) (UniProt Q00839)	2.9

Target	pEC50
ARHGDIB (effect direction: stabilized) (UniProt P52566)	< 2.7
NUP85 (effect direction: stabilized) (UniProt Q9BW27)	< 2.7
MTR (effect direction: stabilized) (UniProt Q99707)	3.13
IKBKG (effect direction: stabilized) (UniProt Q9Y6K9)	3.42
PPA2 (effect direction: destabilized) (UniProt Q9H2U2)	< 2.7
UniProt Q9Y6E0 (effect direction: stabilized)	3.56
EML4 (effect direction: destabilized) (UniProt Q9HC35)	2.93
TUBB3 (effect direction: stabilized) (UniProt Q13509)	3.69
FOXK1 (effect direction: stabilized) (UniProt P85037)	3.36
CTBP1 (effect direction: stabilized) (UniProt Q13363)	2.87
NUP133 (effect direction: stabilized) (UniProt Q8WUM0)	2.84
COPB2 (effect direction: stabilized) (UniProt P35606)	< 2.7
SRRM2 (effect direction: stabilized) (UniProt Q9UQ35)	< 2.7
GLB1 (effect direction: stabilized) (UniProt P16278)	3.35
DNAJA2 (effect direction: stabilized) (UniProt O60884)	< 2.7
PGGT1B (effect direction: stabilized) (UniProt P53609)	3.47
UniProt Q92615 (effect direction: stabilized)	3.16
UniProt Q92888 (effect direction: stabilized)	< 2.7
RBMX (effect direction: destabilized) (UniProt P38159)	< 2.7
CSE1L (effect direction: stabilized) (UniProt P55060)	3.69
UniProt O75521 (effect direction: stabilized)	< 2.7
UniProt Q92918 (effect direction: stabilized)	3.83
LARP7 (effect direction: stabilized) (UniProt Q4G0J3)	3.03

Second part, the target after the results:

pEC50	Target
4.16	PDCL3 (effect direction: destabilized) (UniProt Q9H2J4)
3.39	HNRNPUL2 (effect direction: stabilized) (UniProt Q1KMD3)
2.84	PDK3 (effect direction: stabilized) (UniProt Q15120)
< 2.7	CYB5R1 (effect direction: stabilized) (UniProt Q9UHQ9)
3.3	IRAK4 (effect direction: stabilized) (UniProt Q9NWZ3)
< 2.7	GSTO1 (effect direction: stabilized) (UniProt P78417)
2.93	HNRNPH1 (effect direction: stabilized) (UniProt P31943)
< 2.7	IMPA2 (effect direction: destabilized) (UniProt O14732)
< 2.7	UniProt P52434 (effect direction: stabilized)
3.26	TMEM173 (effect direction: stabilized) (UniProt Q86WV6)
3.11	C12orf29 (effect direction: destabilized) (UniProt Q8N999)
< 2.7	NAP1L4 (effect direction: stabilized) (UniProt Q99733)
3.24	MARS2 (effect direction: stabilized) (UniProt Q96GW9)
3.17	PLEKHF2 (effect direction: stabilized) (UniProt Q9H8W4)
< 2.7	EEF1D (effect direction: stabilized) (UniProt P29692)
3.63	MAP3K4 (effect direction: stabilized) (UniProt Q9Y6R4)
3.16	GNE (effect direction: stabilized) (UniProt Q9Y223)
2.94	GGPS1 (effect direction: destabilized) (UniProt O95749)
< 2.7	SNX1 (effect direction: stabilized) (UniProt Q13596)
< 2.7	ARMC1 (effect direction: stabilized) (UniProt Q9NVT9)
3.09	PPP3CA (effect direction: destabilized) (UniProt Q08209)
3.26	KIF11 (effect direction: stabilized) (UniProt P52732)
3.16	UniProt Q96BW9 (effect direction: stabilized)

pEC50	Target
< 2.7	RPS10 (effect direction: destabilized) (UniProt P46783)
3.16	UniProt P28482 (effect direction: stabilized)
3.96	PSMD2 (effect direction: stabilized) (UniProt Q13200)
4.09	UniProt P68400 (effect direction: stabilized)
3.49	DYRK1A (effect direction: stabilized) (UniProt Q13627)
3.59	MCM5 (effect direction: stabilized) (UniProt P33992)
< 2.7	CS (effect direction: stabilized) (UniProt O75390)
3.14	KIF20A (effect direction: stabilized) (UniProt O95235)
< 2.7	ATXN10 (effect direction: stabilized) (UniProt Q9UBB4)
3.99	RPL14 (effect direction: destabilized) (UniProt P50914)
3.22	UniProt Q15046 (effect direction: stabilized)
4.88	GART (effect direction: stabilized) (UniProt P22102)
3.16	DERA (effect direction: stabilized) (UniProt Q9Y315)
3.85	PRKAR1B (effect direction: stabilized) (UniProt P31321)
3.02	ELAVL1 (effect direction: stabilized) (UniProt Q15717)
2.92	SKIV2L (effect direction: stabilized) (UniProt Q15477)
< 2.7	UniProt Q8N2M8 (effect direction: stabilized)
3.93	DDX49 (effect direction: stabilized) (UniProt Q9Y6V7)
< 2.7	ACADM (effect direction: stabilized) (UniProt P11310)
< 2.7	GLO1 (effect direction: destabilized) (UniProt Q04760)
< 2.7	NUP188 (effect direction: stabilized) (UniProt Q5SRE5)
3.49	CHKA (effect direction: stabilized) (UniProt P35790)

Reference: the supplement of paper PMC6411743
